Where two headings read alike, the source gives them in different places.
Assays:
[1] = Enzymatic stability (kinetics of enzymatic hydrolysis) in human plasma; type: in vitro ADME; conditions: human plasma (80%), 37 °C; for half-life at 3.8 µM: pH 7.4, read-out: t1/2, enzymatic stability (converted)
Description: Enzymatic stability studies in rat and human plasma were performed for both the racemate and its enantiomers (Table 1). […] Considering the high stability of (±)-1 and its enantiomers in simulated physiological fluids and human plasma, these compounds could reach the target site without undergoing esterase metabolism.
Human plasma was purchased from 3H Biomedical (Uppsala, Sweden, Europe). Plasma aliquots (4 mL) were diluted with 0.02 M PBS (pH 7.4) to obtain a final volume of 5 mL containing 80% plasma. Studies were performed at 37 ± 0.5 °C using a shaking bath. Each experiment was started by adding a 10^–4 M drug stock solution (200 μL) to the preheated plasma. Hundred microliters of the thermostated medium was taken at various times, treated with cold methanol (500 μL) to precipitate plasma proteins, and centrifugated (5 min at 5000g). The supernatant was analyzed by HPLC to quantify the amount of the residual intact compound.

human UM 92-1 cells = assay: Crystal violet proliferation assay in human UM 92-1 cells; type: cell-based; conditions: for IC50: 48 h
Description: Then, actions on cell proliferation were examined by crystal violet staining (Figure 6).
HREC and human 92-1 cell (seeded 4 × 10^3 and grown for 24 h at optimum culture conditions) proliferation was measured using crystal violet staining after treatment in 96-well plates with the indicated concentrations of chemicals for an additional 48 h. Control cells received an equal volume of vehicle (DMSO). At the end of the treatment, each well was washed with phosphate-buffered saline (PBS). Following this, the cells were fixed (in 4% paraformaldehyde) and stained with crystal violet solution (0.5% in 20% methanol for HREC or 1% aqueous solution for 92-1 cells). Subsequently, the plate was washed with water and left to dry. Crystal violet staining was evaluated by measuring the absorbance at 570 nm or 590 nm, after crystal violet extraction with 10% acetic acid (at room temperature for 10 min), with a microplate reader with the plate reader (Synergy 2-BioTek). For quantification, each assay was carried out in triplicate.

HREC [2] = conditions: cited from earlier work
[3] = test system: VEGF-A-stimulated human retinal endothelial cells (HRECs); design: method as in PMID 27739690; conditions: cited from earlier work
σ1 receptor = target: T1, σ1 receptor (Cavia porcellus, UniProt Q60492); assay: σ1 receptor binding assay, [3H]-(+)-pentazocine, guinea pig brain membranes
T1 construct: from tissue; host or cells: guinea pig brain membranes
Description: (§1) The σ1 and σ2 receptor binding studies were performed according to the literature.[46],[47] Briefly, for the σ1 receptor binding assay, guinea pig brain membranes (400 μL, 500 μg protein) were incubated for 150 min at 37 °C with 3 nM of the radiolabeled ligand [^3H]-(+)-pentazocine (45 Ci/mmol) and increasing concentrations of tested compounds in 50 mM Tris-HCl (pH 7.4) to a total volume of 1 mL. […] Moreover, σ2 receptor binding assays were made according to the following protocol: the guinea pig brain membranes (300 μL, 360 μg protein) were incubated for 120 min at room temperature with 3 nM [^3H]-DTG (31 Ci/mmol) in the presence of 0.4 mM […] (+)-SKF10,047 to block the σ1 sites. The incubation was performed in 50 mM Tris-HCl (pH 8.0) to a total volume of 0.5 mL with increasing concentrations of each test compound. Nonspecific binding was evaluated in the presence of 5 μM DTG.
(§2) Each sample was filtered through Whatman GF/B glass fiber filters, which were presoaked for 1 h in a 0.5% poly(ethylenimine) solution, using a Millipore filter apparatus. Filters were washed twice with 4 mL of ice-cold buffer. Radioactivity was counted in 4 mL of “Ultima Gold MV” in a 1414 WinSpectral PerkinElmer Wallac or Beckman LS6500 scintillation counter. Inhibition constants (Ki values) were calculated using the EBDA/LIGAND program purchased from Elsevier/Biosoft.

σ2 receptor = target: T2, σ2 receptor (Cavia porcellus, UniProt H0V073); assay: σ2 receptor binding assay, [3H]-DTG, guinea pig brain membranes
T2 construct: the guinea pig brain membranes (300 μL, 360 μg protein) were incubated for 120 min at room temperature with 3 nM [^3H]-DTG; from tissue; host or cells: guinea pig brain membranes
T2 sequence (H0V073 1-176): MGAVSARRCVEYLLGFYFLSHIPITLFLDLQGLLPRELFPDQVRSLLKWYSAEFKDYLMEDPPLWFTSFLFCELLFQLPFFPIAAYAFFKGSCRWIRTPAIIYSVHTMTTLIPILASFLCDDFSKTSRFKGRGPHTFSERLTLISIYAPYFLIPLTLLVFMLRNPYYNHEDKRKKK
Description: as §1, §2

HREC [4] = assay: MTT viability test on HREC; type: cell-based; conditions: Homo sapiens
Description: To dissect enantiomer contributions to antiangiogenic effects by (±)-1, compounds (+)-1 and (−)-1 were evaluated on HREC, an endothelial cell model of angiogenesis.[40] First, HREC viability was assessed by the 3-[4,5–dimethylthiazol-2-yl]-2,5-diphenyltetrazolium bromide (MTT) assay to verify the tolerability of the enantiomers, and different concentrations (1.0, 2.5, 5.0, 10.0, and 20.0 μM) of the compounds were tested for 24, 48, and 72 h. The IC50 values of (+)-1 and (−)-1 were calculated and compared to (±)-1 and its precursors (Table 3).
For cell viability assays, the 3-[4,5–dimethylthiazol-2-yl]-2,5-diphenyltetrazolium bromide (MTT assay, Chemicon, Temecula, CA) was used. The cells were seeded in 96-well plates at a density of 1.5 × 10^4 cells/well and were incubated overnight at 37 °C before the experiment. Afterward, the cells were treated for 24, 48, and 72 h in the presence of different concentrations (1.0, 2.5, 5.0, 10.0, 20.0 μM) of (±)-1, (+)-1, or (−)-1. After the treatments, the cells were incubated with MTT (5 mg/mL) for 3 h, and then 100 μL of dimethyl sulfoxide was added, and the absorbance was read in a plate reader (Synergy 2-BioTek) with a wavelength of 570 nm.

[5] = Homo sapiens, read-out: IC50 on human 92-1 cells (proliferation, crystal violet), 48 h
[6] = read-out: IC50 on human 92-1 cells (proliferation, crystal violet)
[7] = 24 h, read-out: IC50, MTT viability test on HREC
[8] = 24 h, read-out: pIC50 ± SE, MTT viability test on HREC (converted)
[9] = 48 h, read-out: IC50, MTT viability test on HREC
[10] = 48 h, read-out: pIC50 ± SE, MTT viability test on HREC (converted)
[11] = 72 h, read-out: IC50, MTT viability test on HREC
[12] = 72 h, read-out: pIC50 ± SE, MTT viability test on HREC (converted)

T1 sequence (Q60492 whole entry): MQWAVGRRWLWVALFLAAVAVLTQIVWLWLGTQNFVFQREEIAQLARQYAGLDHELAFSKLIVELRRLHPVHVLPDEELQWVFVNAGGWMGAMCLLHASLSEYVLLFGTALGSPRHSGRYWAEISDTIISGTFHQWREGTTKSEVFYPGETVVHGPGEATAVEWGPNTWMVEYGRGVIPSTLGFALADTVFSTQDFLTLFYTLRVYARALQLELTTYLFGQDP

Row | Structure (SMILES) | Kobs, enzymatic stability [1] [h^–1] | half-life at 3.8 µM [1] [h] | effect of PTZ, AC927 or their combination on the antiproliferative effects of the compound in 92-1 cells (human UM 92-1 cells; 5 μM compound, PTZ 2 μM, AC927 2 μM) | IC50 (human UM 92-1 cells; [5]) [µM] | antiproliferative effect with respect to VPA alone (human UM 92-1 cells; UM 92-1 cells) | IC50 (human UM 92-1 cells; [6]) [µM] | pIC50 ± SE, MTT viability test on HREC (HREC [2]; 24 h) | pIC50 ± SE, MTT viability test on HREC (HREC [2]; 48 h) | pIC50 ± SE, MTT viability test on HREC (HREC [2]; 72 h) | reduction of cell migration and proliferation, times more than (±)-HP-mII [3] [times] | reduction of cell migration and proliferation, times more than VPA [3] [times] | Ki (σ1 receptor) [µM] | Ki (σ2 receptor) [µM] | IC50 (HREC [4]; [7]) [µM] | IC50 (HREC [4]; [8]) [µM] | IC50 (HREC [4]; [9]) [µM] | IC50 (HREC [4]; [10]) [µM] | IC50 (HREC [4]; [11]) [µM] | IC50 (HREC [4]; [12]) [µM]
1 | CCCC(CCC)C(=O)OC(CCCN1CCC(O)(c2ccc(Cl)cc2)CC1)c1ccc(F)cc1 (racemic) [(±)-1] | 0.011 ± 0.006 | 60.5 ± 0.6 | did not perturb | 5.46 | about 400 fold | 5.5 ± 0.74 | 4.98 ± 0.02 | 4.95 ± 0.03 | 4.99 ± 0.04 | 20 | 120 |  |  |  |  |  |  |  | 
2 | CCCC(CCC)C(=O)O[C@H](CCCN1CCC(O)(c2ccc(Cl)cc2)CC1)c1ccc(F)cc1 [(+)-1] | 0.012 ± 0.001 | 58.2 ± 1.2 |  | 4.95 |  | 4.9 ± 0.58 |  |  |  |  |  | 0.064 ± 0.0082 | 0.074 ± 0.0089 | 9.8 | 9.77 | 6.4 | 6.46 | 4.4 | 4.47
3 | CCCC(CCC)C(=O)O[C@@H](CCCN1CCC(O)(c2ccc(Cl)cc2)CC1)c1ccc(F)cc1 [(−)-1] | 0.01 ± 0.002 | 70.3 ± 1.5 |  | 4.45 |  | 4.4 ± 0.68 |  |  |  |  |  | 0.016 ± 0.0017 | 0.056 ± 0.0064 | 10.1 | 10.7 | 9 | 9.12 | 6.8 | 6.92

From paper PMC8474110 (Journal of Medicinal Chemistry, 2021)
